Experimental data: ChEMBL document CHEMBL2429833, “A new class of bactericidal agents against S. aureus, MRSA and VRE derived from bisindolylmethane” (Med Chem Res, 2013)
≈ marks a conversion by molar mass, not a printed value. Calls of active or inactive are those of the source. The calls are words filed in the database; no cut-off is given here.

Columns and labels:
Enterococcus faecalis [1] = assay: Antibacterial activity against vancomycin-resistant Enterococcus faecalis after 24 hrs by microdilution method; assay type: functional
Staphylococcus aureus [2] = assay: Antibacterial activity against methicillin-resistant Staphylococcus aureus after 24 hrs by microdilution method; assay type: functional
Staphylococcus aureus [3] = assay: Antibacterial activity against Staphylococcus aureus ATCC 29213 after 24 hrs by microdilution method; assay type: functional; conditions: ATCC 29213, 24 h
A549 = assay: Cytotoxicity against human A549 cells after 48 hrs by MTT assay; assay type: functional, cell-based
HeLa = assay: Cytotoxicity against human HeLa cells after 48 hrs by MTT assay; assay type: functional, cell-based
PC-3 = assay: Cytotoxicity against human PC3 cells after 48 hrs by MTT assay; assay type: functional, cell-based
Pseudomonas aeruginosa = assay: Antibacterial activity against Pseudomonas aeruginosa ATCC 27853 after 24 hrs by microdilution method; assay type: functional, organism-based
Escherichia coli = assay: Antibacterial activity against Escherichia coli ATCC 25922 after 24 hrs by microdilution method; assay type: functional, organism-based
Enterococcus faecalis [4] = assay: Bactericidal activity against vancomycin-resistant Enterococcus faecalis after 24 hrs; assay type: functional
Staphylococcus aureus [5] = assay: Bactericidal activity against methicillin-resistant Staphylococcus aureus after 24 hrs; assay type: functional
Staphylococcus aureus [6] = assay: Bactericidal activity against Staphylococcus aureus ATCC 29213 after 24 hrs; assay type: functional; conditions: ATCC 29213, 24 h

| Compound | MIC (Enterococcus faecalis [1]) | MIC (Staphylococcus aureus [2]) | MIC (Staphylococcus aureus [3]) | IC50 (A549) | IC50 (HeLa) | IC50 (PC-3) | Activity (Pseudomonas aeruginosa) | Activity (Escherichia coli) | MBC (Enterococcus faecalis [4]) | MBC (Staphylococcus aureus [5]) | MBC (Staphylococcus aureus [6]) |
| --- | --- | --- | --- | --- | --- | --- | --- | --- | --- | --- | --- |
| Fc1ccc(C(c2cn(Cc3ccccc3)c3ccc(Br)cc23)c2cn(Cc3ccccc3)c3ccc(Br)cc23)cc1 | > 128 µg/mL | > 128 µg/mL | > 128 µg/mL | 28.2 µM | 28.3 µM | 43.1 µM |  |  |  |  |  |
| O=S(=O)(c1ccc(F)cc1)n1cc(C(c2ccc(F)cc2)c2cn(S(=O)(=O)c3ccc(F)cc3)c3ccc(Br)cc23)c2cc(Br)ccc21 | > 128 µg/mL | > 128 µg/mL | > 128 µg/mL | > 100 µM | > 100 µM | > 100 µM |  |  |  |  |  |
| Fc1ccc(C(c2c[nH]c3ccc(Br)cc23)c2c[nH]c3ccc(Br)cc23)cc1 | 8 µg/mL (≈ 16.1 µM) | 1 µg/mL (≈ 2.01 µM) | 1 µg/mL (≈ 2.01 µM) | 4.5 µM | 2.7 µM | 3.9 µM | inactive | inactive | 16 µg/mL (≈ 32.1 µM) | 1 µg/mL (≈ 2.01 µM) | 1 µg/mL (≈ 2.01 µM) |
| COc1ccc(Cn2cc(C(c3ccc(F)cc3)c3cn(Cc4ccc(OC)cc4)c4ccc(Br)cc34)c3cc(Br)ccc32)cc1 | > 128 µg/mL | > 128 µg/mL | > 128 µg/mL | 36.4 µM | 48.5 µM | 43.5 µM |  |  |  |  |  |
| Fc1ccc(C(c2cn(Cc3ccc(Br)cc3)c3ccc(Br)cc23)c2cn(Cc3ccc(Br)cc3)c3ccc(Br)cc23)cc1 | > 128 µg/mL | > 128 µg/mL | > 128 µg/mL | 24.7 µM | 49 µM | 43.7 µM |  |  |  |  |  |
| CCCCCCCCn1cc(C(c2ccc(F)cc2)c2cn(CCCCCCCC)c3ccc(Br)cc23)c2cc(Br)ccc21 | > 128 µg/mL | > 128 µg/mL | > 128 µg/mL | 38.7 µM | 32.4 µM | 44.9 µM |  |  |  |  |  |
| CCCCCn1cc(C(c2ccc(F)cc2)c2cn(CCCCC)c3ccc(Br)cc23)c2cc(Br)ccc21 | > 128 µg/mL | > 128 µg/mL | > 128 µg/mL | 32.5 µM | 27.2 µM | 40.3 µM |  |  |  |  |  |
| Cn1cc(C(c2ccc(F)cc2)c2cn(C)c3ccc(Br)cc23)c2cc(Br)ccc21 | 8 µg/mL (≈ 15.2 µM) | 8 µg/mL (≈ 15.2 µM) | 4 µg/mL (≈ 7.6 µM) | 29.4 µM | 25.4 µM | 38.9 µM |  |  | 8 µg/mL (≈ 15.2 µM) | 8 µg/mL (≈ 15.2 µM) | 4 µg/mL (≈ 7.6 µM) |
| Fc1ccc(C(c2cn(Cc3ccc(Cl)cc3)c3ccc(Br)cc23)c2cn(Cc3ccc(Cl)cc3)c3ccc(Br)cc23)cc1 | > 128 µg/mL | > 128 µg/mL | > 128 µg/mL | 22.8 µM | 18.5 µM | 38.5 µM |  |  |  |  |  |
| Oc1cccc(C(c2c[nH]c3ccc(Br)cc23)c2c[nH]c3ccc(Br)cc23)c1 | 4 µg/mL (≈ 8.06 µM) | 2 µg/mL (≈ 4.03 µM) | 1 µg/mL (≈ 2.02 µM) |  |  |  | inactive | inactive | 8 µg/mL (≈ 16.1 µM) | 2 µg/mL (≈ 4.03 µM) | 1 µg/mL (≈ 2.02 µM) |
| COc1ccc(S(=O)(=O)n2cc(C(c3ccc(F)cc3)c3cn(S(=O)(=O)c4ccc(OC)cc4)c4ccc(Br)cc34)c3cc(Br)ccc32)cc1 | > 128 µg/mL | > 128 µg/mL | > 128 µg/mL | > 100 µM | > 100 µM | > 100 µM |  |  |  |  |  |
| Fc1ccc(Cn2cc(C(c3ccc(F)cc3)c3cn(Cc4ccc(F)cc4)c4ccc(Br)cc34)c3cc(Br)ccc32)cc1 | > 128 µg/mL | > 128 µg/mL | > 128 µg/mL | 8.7 µM | 1.1 µM | 36.5 µM |  |  |  |  |  |
